In publication PMC7937321 (Genes and Environment, 2021):

What was measured:
[1] = Cytotoxicity in the TK6 assay (CE, RS, RSG, RTG); details: human; for viability at 24 h, 173.7 μg/mL: 173.70 μg/mL; for viability at 24 h, 277.9 μg/mL: 277.90 μg/mL; for viability at 4 h, 444.7 μg/mL: dose 444.70 μg/mL
Description: (§1) Briefly, test substances were dissolved in an appropriate solvent (DMSO or ethanol) and then serially diluted to prepare final concentrations. […] The 4 h and 24 h treatments were conducted by shaking and static exposures, respectively. After treatment with test substances, cells were centrifuged (1000 rpm, 5 min), supernatants were removed, and cells were washed with a serum-free medium or Hank’s Balanced Salt Solution. After centrifugation (1000 rpm, 5 min) to remove the supernatant, cells (2 × 10^7 cells) were dispersed in an RPMI medium containing 10% serum, and cell concentration was measured. Treated cells were cultured at 37 °C with 5% CO2 condition and used for TK6 assays. At that time, to calculate the cloning efficiency (CE) (Eq. 1), the cells were cultured in a 96-well microplate at a concentration of about 1.6 cells/well for 2 weeks.
(§2) CE, the cell colony formation rate, was calculated using Eq. 1 according to the Poisson distribution equation. EW was the number of wells without colonies, and TW was the total number of wells. N was the average number of cells per well (N = 1.6). 1 CE=−lnEW/TW/N
(§3) Additionally, CE was adjusted by the following calculation (Eq. 2) due to cell loss when exposure caused cytotoxicity. “The number of cells at the end of the treatment” was the number of cells obtained after centrifugation at the end of the treatment in the above-described exposure treatment of the test substance. The “cell number at the start of treatment” was 2 × 10^7. 2 AdjustedCE=CE×number of cellsatendof treatment/number of cellsatthe start of treatment
(§4) CE0 seeding, in which cells were seeded immediately after treatment, and CE3 seeding, in which cells were seeded 3 days after treatment, to examine cell viability in the TK6 assay described below. The relative cell viability RS0 (%) just after the treatment with the test substance was calculated from CE0, following Eq. 3. The survival rate of the negative control group was defined as 100%. 3 RS0%=adjusted CE0 of treatment culture/adjusted CE0 of solvent control×100
(§5) The TK6 assay is conducted between 20 and 10% RS0 as a maximum dose if cytotoxicity is observed. […] When the main TK6 assay was difficult to conduct under the condition of RS0 values from 20 to 10%, the test was conducted between 20 and 10% relative total growth (RTG), described later, as a maximum dose.
(§6) Besides RS0, relative suspension growth (RSG) and RTG as other cytotoxicity indices (Eq. 4) were used. When cells were cultured for 3 days after treatment with the test substance, suspension cell growth ratio 1 (SG1) was the growth ratio from day 0 to day 1 (cell concentration on day 1/cell concentration on day 0). The suspension cell growth ratio 2 (SG2) was the growth ratio from day 1 to day 2 (cell concentration on day 2/cell concentration on day 1). The RSG value was calculated by dividing the total SG value of the untreated group for 3 days by the total SG value of the treated group for the same 3 days (Eq. 4).
(§7) On the third day of culture, CE3 plates for determining plating efficiency and mutant frequency (MF) plates for mutation detection were prepared. CE3 plates were seeded in 96-well microplates at a concentration of about 1.6 cells/well.

[2] = system: TK6 cells; test: Cytotoxicity in the TK6 assay (CE, RS, RSG, RTG); details: for RS: graph data
Description: as §1, §2, §3, §4, §5, §6, §7

[3] = TK6 cells with rat liver S9 mix, CE0 (%), cell viability on Day 0, Short treatment, +S9 mix
[4] = TK6 cells with rat liver S9 mix, CE3 (%), cell viability on Day 3, Short treatment, +S9 mix
[5] = TK6 cells without S9 mix, CE0 (%), cell viability on Day 0, 24 h treatment, -S9 mix
[6] = TK6 cells without S9 mix, CE0 (%), cell viability on Day 0, Short treatment, -S9 mix
[7] = TK6 cells without S9 mix, CE3 (%), cell viability on Day 3, 24 h treatment, -S9 mix
[8] = TK6 cells without S9 mix, CE3 (%), cell viability on Day 3, Short treatment, -S9 mix
[9] = 24 h treatment, -S9 mix, 173.70 μg/mL
[10] = 24 h treatment, -S9 mix, 277.90 μg/mL
[11] = 24 h treatment, -S9 mix, 444.70 μg/mL
[12] = 24 h treatment, -S9 mix, 711.5 μg/mL
[13] = 24 h treatment, -S9 mix, 1138.4 μg/mL
[14] = 24 h treatment, -S9 mix, 1821.4 μg/mL
[15] = Short treatment, +S9 mix, dose 173.7 μg/mL
[16] = Short treatment, +S9 mix, dose 277.9 μg/mL
[17] = Short treatment, +S9 mix, dose 445 μg/mL
[18] = Short treatment, +S9 mix, dose 712 μg/mL
[19] = Short treatment, +S9 mix, dose 1138 μg/mL
[20] = Short treatment, +S9 mix, dose 1821 μg/mL
[21] = Short treatment, -S9 mix, dose 173.70 μg/mL
[22] = Short treatment, -S9 mix, dose 277.90 μg/mL
[23] = Short treatment, -S9 mix, dose 444.70 μg/mL
[24] = Short treatment, -S9 mix, dose 711.5 μg/mL
[25] = Short treatment, -S9 mix, dose 1138.4 μg/mL
[26] = Short treatment, -S9 mix, dose 1821.4 μg/mL

## Nc1cc([N+](=O)[O-])ccc1C(=O)O [4-Nitroanthranilic acid]
[1]; TK6 cells with rat liver S9 mix, CE0 (%), cell viability on Day 0, Short treatment, +S9 mix, dose 173.7 μg/mL
  viability at 4 h, 173.7 μg/mL: 84.1%
[1]; TK6 cells with rat liver S9 mix, CE0 (%), cell viability on Day 0, Short treatment, +S9 mix, dose 277.9 μg/mL
  viability at 4 h, 277.9 μg/mL: 98%
[1]; [3]
  viability at 4 h, 445 μg/mL: 72.7%
  viability at 4 h, 712 μg/mL: 79.3%
  viability at 4 h, 1138 μg/mL: 108%
  viability at 4 h, 1821 μg/mL: 3.3%
[1]; TK6 cells with rat liver S9 mix, CE3 (%), cell viability on Day 3, Short treatment, +S9 mix, dose 173.7 μg/mL
  viability at 4 h, 173.7 μg/mL: 70.6%
[1]; TK6 cells with rat liver S9 mix, CE3 (%), cell viability on Day 3, Short treatment, +S9 mix, dose 277.9 μg/mL
  viability at 4 h, 277.9 μg/mL: 66.7%
[1]; [4]
  viability at 4 h, 445 μg/mL: 81.6%
  viability at 4 h, 712 μg/mL: 98%
  viability at 4 h, 1138 μg/mL: 84.1%
  viability at 4 h, 1821 μg/mL: 44.6%
[1]; [5]
  viability at 24 h, 173.7 μg/mL: 47.4%
  viability at 24 h, 277.9 μg/mL: 23.4%
  viability at 24 h, 711.5 μg/mL: 42%
  viability at 24 h, 1821.4 μg/mL: 24.4%
[1]; TK6 cells without S9 mix, CE0 (%), cell viability on Day 0, 24 h treatment, -S9 mix, 444.70 μg/mL
  viability at 24 h, 444.7 μg/mL: 42%
[1]; TK6 cells without S9 mix, CE0 (%), cell viability on Day 0, 24 h treatment, -S9 mix, 1138.4 μg/mL
  viability at 24 h, 1138.4 μg/mL: 30.4%
[1]; TK6 cells without S9 mix, CE0 (%), cell viability on Day 0, Short treatment, -S9 mix, dose 173.70 μg/mL
  viability at 4 h, 173.7 μg/mL: 120%
[1]; TK6 cells without S9 mix, CE0 (%), cell viability on Day 0, Short treatment, -S9 mix, dose 277.90 μg/mL
  viability at 4 h, 277.9 μg/mL: 77%
[1]; [6]
  viability at 4 h, 444.7 μg/mL: 77%
  viability at 4 h, 711.5 μg/mL: 74.8%
  viability at 4 h, 1138.4 μg/mL: 46%
  viability at 4 h, 1821.4 μg/mL: 29.4%
[1]; [7]
  viability at 24 h, 173.7 μg/mL: 84.1%
  viability at 24 h, 277.9 μg/mL: 84.1%
  viability at 24 h, 711.5 μg/mL: 68.7%
  viability at 24 h, 1821.4 μg/mL: 43.3%
[1]; TK6 cells without S9 mix, CE3 (%), cell viability on Day 3, Short treatment, -S9 mix, dose 173.70 μg/mL
  viability at 4 h, 173.7 μg/mL: 89.3%
[1]; TK6 cells without S9 mix, CE3 (%), cell viability on Day 3, Short treatment, -S9 mix, dose 277.90 μg/mL
  viability at 4 h, 277.9 μg/mL: 77%
[1]; [8]
  viability at 4 h, 444.7 μg/mL: 105%
  viability at 4 h, 711.5 μg/mL: 101%
  viability at 4 h, 1138.4 μg/mL: 95%
  viability at 4 h, 1821.4 μg/mL: 105%
[2]; 1138 μg/mL, short-term without metabolic activation
  cytotoxicity: More than 50%
[2]; 1821 μg/mL, long-term treatment
  cytotoxicity: More than 80%
[2]; 1821 μg/mL, short-term with metabolic activation
  cytotoxicity: approximately 100%
[2]; 1821 μg/mL, short-term without metabolic activation
  cytotoxicity: More than 50%
[2]; [9]
  Adjusted CE0(%): 111.3%
  RS0 (%): 133.0%
  RSG: 1.273
[2]; [10]
  Adjusted CE0(%): 40.4%
  RS0 (%): 48.3%
  RSG: 0.978
[2]; [11]
  Adjusted CE0(%): 71.5%
  RS0 (%): 85.4%
  RSG: 1.146
[2]; [12]
  Adjusted CE0(%): 49.4%
  RS0 (%): 59.0%
  RSG: 1.081
[2]; [13]
  Adjusted CE0(%): 26.6%
  RS0 (%): 31.8%
  RSG: 0.835
[2]; [14]
  Adjusted CE0(%): 14.0%
  RS0 (%): 16.7%
  RSG: 0.892
[2]; [15]
  Adjusted CE0(%): 84.1%
  RS0 (%): 71.1%
  RSG: 1.078
  RS: 71.1
[2]; [16]
  Adjusted CE0(%): 107.8%
  RS0 (%): 91.1%
  RSG: 0.902
  RS: 91.1
[2]; [17]
  Adjusted CE0(%): 58.9%
  RS0 (%): 49.8%
  RSG: 0.653
  RS: 49.8
[2]; [18]
  Adjusted CE0(%): 79.3%
  RS0 (%): 67.0%
  RSG: 0.824
  RS: 67.0
[2]; [19]
  Adjusted CE0(%): 96.3%
  RS0 (%): 81.4%
  RSG: 0.854
  RS: 81.4
[2]; [20]
  Adjusted CE0(%): 3.0%
  RS0 (%): 2.6%
  RSG: 0.036
  RS: 2.6
[2]; [21]
  Adjusted CE0(%): 132.4%
  RS0 (%): 186.4%
  RSG: 1.135
  RS: 186.4
[2]; [22]
  Adjusted CE0(%): 61.6%
  RS0 (%): 86.8%
  RSG: 0.893
  RS: 86.8
[2]; [23]
  Adjusted CE0(%): 84.7%
  RS0 (%): 119.3%
  RSG: 0.880
  RS: 119.3
[2]; [24]
  Adjusted CE0(%): 60.6%
  RS0 (%): 85.4%
  RSG: 0.786
  RS: 85.4
[2]; [25]
  Adjusted CE0(%): 33.1%
  RS0 (%): 46.6%
  RSG: 0.678
  RS: 46.6
[2]; [26]
  Adjusted CE0(%): 22.9%
  RS0 (%): 32.3%
  RSG: 0.302
  RS: 32.3
[2]; as fraction in mutation frequency table, 24 h treatment, -S9 mix, 173.70 μg/mL
  CE3: 0.841
[2]; as fraction in mutation frequency table, 24 h treatment, -S9 mix, 277.90 μg/mL
  CE3: 0.841
[2]; as fraction in mutation frequency table, 24 h treatment, -S9 mix, 444.70 μg/mL
  CE3: 0.793
[2]; as fraction in mutation frequency table, 24 h treatment, -S9 mix, 711.5 μg/mL
  CE3: 0.687
[2]; as fraction in mutation frequency table, 24 h treatment, -S9 mix, 1138.4 μg/mL
  CE3: 0.950
[2]; as fraction in mutation frequency table, 24 h treatment, -S9 mix, 1821.4 μg/mL
  CE3: 0.433
[2]; as fraction, mutation frequency table, Short treatment, +S9 mix, dose 173.7 μg/mL
  CE3: 0.706
[2]; as fraction, mutation frequency table, Short treatment, +S9 mix, dose 277.9 μg/mL
  CE3: 0.667
[2]; as fraction, mutation frequency table, Short treatment, +S9 mix, dose 445 μg/mL
  CE3: 0.816
[2]; as fraction, mutation frequency table, Short treatment, +S9 mix, dose 712 μg/mL
  CE3: 0.980
[2]; as fraction, mutation frequency table, Short treatment, +S9 mix, dose 1138 μg/mL
  CE3: 0.841
[2]; as fraction, mutation frequency table, Short treatment, +S9 mix, dose 1821 μg/mL
  CE3: 0.446
[2]; as fraction, mutation frequency table, Short treatment, -S9 mix, dose 173.70 μg/mL
  CE3: 0.893
[2]; as fraction, mutation frequency table, Short treatment, -S9 mix, dose 277.90 μg/mL
  CE3: 0.770
[2]; as fraction, mutation frequency table, Short treatment, -S9 mix, dose 444.70 μg/mL
  CE3: 1.046
[2]; as fraction, mutation frequency table, Short treatment, -S9 mix, dose 711.5 μg/mL
  CE3: 1.012
[2]; as fraction, mutation frequency table, Short treatment, -S9 mix, dose 1138.4 μg/mL
  CE3: 0.950
[2]; as fraction, mutation frequency table, Short treatment, -S9 mix, dose 1821.4 μg/mL
  CE3: 1.046
[2]; 24 h, -S9 mix, 173.70 μg/mL
  RS: 133.0
[2]; 24 h, -S9 mix, 277.90 μg/mL
  RS: 48.3
[2]; 24 h, -S9 mix, 444.70 μg/mL
  RS: 85.4
[2]; 24 h, -S9 mix, 711.5 μg/mL
  RS: 59.0
[2]; 24 h, -S9 mix, 1138.4 μg/mL
  RS: 31.8
[2]; 24 h, -S9 mix, 1821.4 μg/mL
  RS: 16.7
